Assay results as given in PubChem BioAssay (NCI).
“And” between values parts separate entries of the source, which are not always exact repeats. Identical values can stand only once.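 Tested at 5 concentrations; 48 h exposure; 96-well plates; endpoints linearly interpolated, else capped at highest concentration. Abbreviation: GI50, concentration required for 50% inhibition of growth. TGI marks complete inhibition of growth.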

Columns and labels:
Test in all cases: NCI anticancer screen, dose series, 48 h
SK-MEL-2 melanoma = test system: SK-MEL-2 melanoma
EKVX NSCLC = test system: EKVX NSCLC
MCF7 breast = test system: MCF7 breast
COLO 205 colon = test system: COLO 205 colon
HOP-92 NSCLC = test system: HOP-92 NSCLC
HCC-2998 colon = test system: HCC-2998 colon
HCT-116 colon = test system: HCT-116 colon
RPMI-8226 leukemia = test system: RPMI-8226 leukemia
MALME-3M melanoma = test system: MALME-3M melanoma
SR leukemia = test system: SR leukemia

| SMILES | GI50 (SK-MEL-2 melanoma) | TGI (SK-MEL-2 melanoma) | GI50 (EKVX NSCLC) | TGI (EKVX NSCLC) | GI50 (MCF7 breast) | TGI (MCF7 breast) | GI50 (COLO 205 colon) | TGI (COLO 205 colon) | GI50 (HOP-92 NSCLC) | TGI (HOP-92 NSCLC) | GI50 (HCC-2998 colon) | TGI (HCC-2998 colon) | GI50 (HCT-116 colon) | TGI (HCT-116 colon) | GI50 (RPMI-8226 leukemia) | TGI (RPMI-8226 leukemia) | GI50 (MALME-3M melanoma) | TGI (MALME-3M melanoma) | GI50 (SR leukemia) | TGI (SR leukemia) |
| --- | --- | --- | --- | --- | --- | --- | --- | --- | --- | --- | --- | --- | --- | --- | --- | --- | --- | --- | --- | --- |
| Cc1[nH]c(C(=O)Nc2cccc(OC3CCNCC3)c2)c(Cl)c1Cl | 2.14 µM | 4.54 µM | 1.57 µM | 3.39 µM | 1.5 µM | 3.05 µM | 1.93 µM | 4.02 µM | 1.32 µM | 4 µM | 1.76 µM | 3.31 µM | 1.65 µM | 3.24 µM | 2.05 µM | 4.59 µM | 1.6 µM | 3.22 µM | 2.02 µM | 5.09 µM |
| CCCCCCCCCCCCC(O)C1CCC(C(O)CCCCC(O)CCCCCC2CC(CC(C)=O)C(=O)O2)O1 (stereo unspecified) | 1.36 µM | 2.88 µM and 15.8 µM | 1.08 µM | 4.11 µM and 20.8 µM |  | 3.82 µM | 1.37 µM | 2.65 µM and 11.7 µM | 3.38 µM | 9.29 µM and 12.5 µM |  | 16.3 µM | 1.93 µM | 14.8 µM | 1.28 µM and 0.367 µM | 4.73 µM and 18.5 µM |  | 16.5 µM | 2.8 µM | 6.93 µM and 25.5 µM |
| c1cc[n+](Cc2c3ccccc3cc3c2ccc2ccccc23)cc1 | 2.14 µM | 4.69 µM | 19.5 µM | > 100 µM | 3.25 µM | 13.2 µM | 1.88 µM | 5.24 µM | 1.56 µM | 6.97 µM | 3.38 µM | 19.4 µM | 4.77 µM | 17.1 µM | 2.31 µM | 8.87 µM | 1.56 µM | 3.91 µM | 2.64 µM | 11.6 µM |
| COc1ccc2c(c1)OCC1c3cc(OC)c4ccccc4c3OC21 (stereo unspecified) | 12.2 µM | 77.7 µM | 25.1 µM | > 100 µM | 3.59 µM | > 100 µM | 7.98 µM | 33.1 µM | 22.3 µM | > 100 µM | 1.98 µM | 7.26 µM | 6.65 µM | > 100 µM | 10.6 µM | > 100 µM | 5.01 µM | > 100 µM | 3.89 µM | 16.6 µM |
| CCc1ccc(Oc2c(-c3ccc(OCCc4cccc(C(F)(F)F)c4)cc3O)n[nH]c2C(F)(F)F)cc1 | 6.54 µM | 13.4 µM | 5.11 µM | 11.2 µM | 2.24 µM | 7.82 µM | 8.72 µM | 15.8 µM | 1.36 µM | 5.01 µM | 8.54 µM | 16 µM | 1.53 µM | 5.47 µM | 1.8 µM | 7.55 µM | 5.42 µM | 11.8 µM | 3.06 µM | 12 µM |
| NS(=O)(=O)c1ccc(N=Nc2c(O)[nH]c3ccc(C(=O)NCCCn4ccnc4)cc23)cc1 | > 25 µM | > 25 µM | > 25 µM | > 25 µM | > 25 µM | > 25 µM | > 25 µM | > 25 µM | > 25 µM | > 25 µM | > 25 µM | > 25 µM | > 25 µM | > 25 µM | > 25 µM | > 25 µM | > 25 µM | > 25 µM | > 25 µM | > 25 µM |
| CS(=O)(=O)Nc1cc(-c2ccc3ncc(C#N)c(Nc4ccc(F)c(Cl)c4)c3c2)cnc1Cl | 0.133 µM | 0.53 µM | 0.275 µM | 3.29 µM | 0.0946 µM | > 100 µM | 0.232 µM | 0.943 µM | 0.0333 µM | 0.61 µM | 0.382 µM | 1.55 µM | 0.0486 µM |  | 0.0833 µM | 0.469 µM | 0.0354 µM | 0.278 µM | 0.161 µM | 1.12 µM |
| Cc1cc(O)ccc1C1(c2ccc(O)cc2C)OC(=O)c2ccccc21 | 18.4 µM | 33.8 µM | 14.9 µM | 31 µM | 18.1 µM | 36.5 µM | 16.8 µM | 32.3 µM | 15.4 µM | 29.7 µM | 18.5 µM | 33.9 µM | 18.6 µM | 33.7 µM | 28.1 µM | 78.7 µM | 17.9 µM | 37.9 µM | 30.3 µM | > 100 µM |
| CC(C)c1cnc(-c2cc(Cl)ccc2F)cc1Nc1ccncc1C(=O)NC(CO)CO | 18 µM | 38.5 µM | 11.2 µM | 24.6 µM | 11.6 µM | 27.3 µM | 14.9 µM | 33.9 µM | 1.33 µM | 35.4 µM | 17.6 µM | 33.2 µM | 12.5 µM | 28.5 µM | 13.5 µM | 52.6 µM | 17.2 µM | 34.4 µM | 16.2 µM | 53.7 µM |
| COc1ccc2[nH]c(C(=O)OCc3ccc4c(Br)cc(Br)c(O)c4n3)cc2c1 | 1.55 µM | 3.12 µM | 1.41 µM | 2.82 µM | 0.442 µM | 2.05 µM | 0.442 µM | 1.92 µM | 0.352 µM | 1.75 µM | 1.57 µM | 3.06 µM | 0.187 µM | 0.543 µM | 0.308 µM | 1.29 µM | 1.45 µM | 2.85 µM | 0.293 µM | 2.04 µM |
| COc1ccccc1CNCCCN1C(=O)c2ccc3c4c(ccc(c24)C1=O)C(=O)N(CCCNCCCCNCCCN)C3=O | 0.227 µM | 0.591 µM | 1.39 µM | 3.22 µM | 0.2 µM | 0.466 µM | 0.168 µM | 0.317 µM | 0.67 µM | 5.23 µM | 0.295 µM | 1.06 µM | 0.315 µM | 1.16 µM | 0.626 µM | 10.8 µM | 0.241 µM | 0.546 µM | 0.322 µM | > 23.2 µM |
| Cn1c2c(c3ccccc31)CCN1C[C@@H]3CCCC[C@H]3C[C@@H]21 | 5.8 µM | > 26.7 µM | 5.57 µM | > 100 µM | 3.17 µM | > 72.8 µM | 2.04 µM | 4.68 µM | 3.44 µM | 34.2 µM | 2.1 µM | 5.48 µM | 3.19 µM | > 31.2 µM | 3.06 µM | > 26.3 µM | 4.22 µM | > 55.8 µM | 2.96 µM | > 25.8 µM |
